Source: the supplement of paper PMC8967900

Assays:
Test in all cases: selective drug sensitivity score (sDSS, relative to normal bone marrow) (sDSS (score)); higher = more potent and effective on the cell line relative to normal bone marrow cells
Settings in all cases: 72 h
697 = tested on: 697
ALL-PO = tested on: ALL-PO
CCRF-HSB2 = tested on: CCRF-HSB2
COG-LL-332h = tested on: COG-LL-332h
COG-LL-355h = tested on: COG-LL-355h
COG-LL-402h = tested on: COG-LL-402h
HAL-01 = tested on: HAL-01
HPB-ALL = tested on: HPB-ALL
KASUMI-10 = tested on: KASUMI-10
KASUMI-2 = tested on: KASUMI-2
KASUMI-9 = tested on: KASUMI-9
KOPN-8 = tested on: KOPN-8
LC4-1 = tested on: LC4-1
MHH-CALL-2 = tested on: MHH-CALL-2
MHH-CALL-4 = tested on: MHH-CALL-4
MOLT-16 = tested on: MOLT-16
MOLT-4 = tested on: MOLT-4
RCH-ACV = tested on: RCH-ACV
SEM cells = tested on: SEM cells
TMD5 = tested on: TMD5
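Further: ALL cell lines in 384-well plates, five doses spanning 10,000-fold, each plate scaled between vehicle and 100 µmol/L benzalkonium chloride controls, sDSS an adapted area-under-curve metric.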

SMILES | selective drug sensitivity score 697 | selective drug sensitivity score (ALL-PO) | selective drug sensitivity score (CCRF-HSB2) | selective drug sensitivity score (COG-LL-332h) | selective drug sensitivity score (COG-LL-355h) | selective drug sensitivity score (COG-LL-402h) | selective drug sensitivity score (HAL-01) | selective drug sensitivity score (HPB-ALL) | selective drug sensitivity score (KASUMI-10) | selective drug sensitivity score (KASUMI-2) | selective drug sensitivity score (KASUMI-9) | selective drug sensitivity score (KOPN-8) | selective drug sensitivity score (LC4-1) | selective drug sensitivity score (MHH-CALL-2) | selective drug sensitivity score (MHH-CALL-4) | selective drug sensitivity score (MOLT-16) | selective drug sensitivity score (MOLT-4) | selective drug sensitivity score (RCH-ACV) | selective drug sensitivity score (SEM cells) | selective drug sensitivity score (TMD5)
CCn1cc(-c2ccnc3[nH]c(-c4cccc(CN(C)C)c4)cc23)c(-c2ccc(NC(=O)N(C)C)cc2)n1 (top concentration 1000 nM) | 20.5 | 13.2 | 15.5 | 19.3 | 8.36 | 17.8 | 1.46 | -0.44 | 9.86 | 17.7 | 20.3 | 11.2 | 23.4 | 6.66 | 7.46 | 14.9 | 13.1 | 14 | 17.9 | 13.5
CC(C)(C)C[C@@H]1N[C@@H](C(=O)N[C@H]2CC[C@H](O)CC2)[C@H](c2cccc(Cl)c2F)[C@]12C(=O)Nc1cc(Cl)ccc12 (top concentration 10000 nM) | 11.2 | -1.84 | 9.06 | 8.66 | 8.46 | 13.4 | 12.2 | -3.44 | 12.5 | 11.7 | 16.4 | 12.9 | 12.4 | 13.2 | 8.96 | 12.5 | 12.9 | 12.4 | -1.94 | 9.16
Cc1c(Cn2c(C)nc3c(C(=O)O)cc(N4CCOCC4)cc32)cccc1C(F)(F)F (top concentration 10000 nM) | 1.28 | 0.08 | -0.02 | 0.98 | 1.98 | 3.68 | 9.28 | -0.02 | -0.02 | -0.02 | 1.08 | 0.38 | -0.02 | 0.58 | 0.58 | -0.02 | -0.02 | 5.18 | 0.58 | -0.02
Nc1ncnc2c1c(COc1cccc(Cl)c1)nn2C1CCOCC1 (top concentration 10000 nM) | 0.26 | 0.66 | 2.96 | -0.14 | 2.06 | 1.56 | 4.06 | 1.26 | -0.64 | 2.46 | 1.06 | 5.66 | 0.26 | 1.76 | -0.64 | -0.64 | 0.16 | 6.06 | -0.64 | -0.64
Cn1cc(C[C@@H](N)C(=O)O)c2ccccc21 [1-methyl-D-tryptophan] (top concentration 5000 nM) | -0.62 | -0.62 | -0.62 | -0.62 | -0.62 | -0.62 | 0.58 | -0.62 | -0.62 | 0.38 | -0.62 | 1.18 | -0.62 | 2.28 | -0.62 | -0.62 | -0.62 | -0.62 | -0.32 | -0.62
COc1cc2c(cc1OCCCN1CCCC1)N=C(N)C21CCC1 [A-366] (top concentration 25000 nM) | -1.34 | 1.76 | 0.16 | 4.86 | 0.76 | -1.84 | -1.84 | -1.84 | 1.46 | -1.84 | 2.36 | -0.64 | -1.24 | -1.14 | -0.34 | 3.46 | 1.36 | 0.06 | 0.46 | -1.84
COCCOc1cnc2ccn([C@H](C)c3nnc4c(F)cc(-c5cnn(C)c5)cn34)c(=O)c2c1 [AMG-337] (top concentration 10000 nM) | -0.06 | -0.06 | -0.06 | -0.06 | -0.06 | -0.06 | 5.24 | 1.54 | -0.06 | 2.14 | 0.14 | 1.54 | -0.06 | 7.54 | -0.06 | -0.06 | -0.06 | -0.06 | -0.06 | -0.06
COc1cc(N2CCC(N3CCN(C)CC3)CC2)ccc1Nc1ncnc(Nc2ccccc2S(=O)(=O)C(C)C)n1 [ASP3026] (top concentration 10000 nM) | -0.84 | 5.36 | 5.06 | -0.04 | 1.36 | 1.76 | 1.76 | 1.26 | 2.86 | -4.04 | -0.84 | -2.64 | -0.44 | -0.84 | -3.94 | -1.54 | -0.14 | -0.74 | 1.66 | -1.84
CN[C@@H](C)C(=O)N[C@H]1CN(C(=O)CC(C)C)CC[C@H]2CC[C@@H](C(=O)NC(c3ccccc3)c3ccccc3)N2C1=O [AT-406] (top concentration 10000 nM) | -1.26 | -1.26 | 1.94 | 2.54 | 8.04 | -0.86 | 3.04 | -1.26 | -1.26 | 0.34 | -1.26 | -1.26 | -1.26 | 2.14 | -1.26 | -1.26 | -1.26 | 0.84 | -1.26 | 6.54
